Test results as given in patent US20250235427A1, “5-METHOXY-N,N-[…][…] THE TREATMENT OF SOCIAL/EMOTIONAL […] DETACHMENT” (GH RESEARCH IRELAND LIMITED, priority 2022, published 2025).

Assay: Pharmacokinetics after inhalation of 5-MeO-DMT, LC-MS/MS
Format: in vivo, human
Settings: for plasma concentration as % of Cmax: whole dose range 6, 12, 18 mg

COc1ccc2[nH]cc(CCN(C)C)c2c1 [5-MeO-DMT]
plasma concentration as % of Cmax (10 minutes after inhalation): ≤ 10%
plasma concentration as % of Cmax (2 hours after inhalation): ≤ 1%
accumulation upon repeated administration (repeated administration within a time frame of 1 to 4 hours): No accumulation is observed
